Measured values: the supplement of paper PMC10307832

Key:
Assay in all cases: relative viability (nuclei count vs DMSO), 5 days (fraction); higher = more cells survive
[1] = compound: CC(C)N(CCCNC(=O)Nc1ccc(C(C)(C)C)cc1)C[C@H]1O[C@@H](n2ccc3c(N)ncnc32)[C@H](O)[C@@H]1O + Nc1nc2[nH]cc(CCc3ccc(C(=O)N[C@@H](CCC(=O)O)C(=O)O)cc3)c2c(=O)[nH]1 [Pemetrexed] (partner 0.2 µM)
Method in brief: (§1)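 Lung cancer cell lines were seeded in 1536-well plates and dosed by pin tool the next day, with either a single drug or a fixed anchor-drug dose combined with five library-drug doses (not always all listed) spaced in √10 steps. Five days later, one step fixed the cells and stained their nuclei (final 0.05% Triton X-100, 1% formaldehyde, 1 ug/ml Hoechst), and nuclei were counted on 4× images. Relative viability is the nuclei count in treated wells divided by the count in vehicle wells, and each value is the median of duplicate plates.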

[2] = compound: CC(C)=CC[C@@H](O)C1=CC(=O)c2c(O)ccc(O)c2C1=O [Shikonin] + Cc1nc(NC(=O)N2CCC[C@H]2C(N)=O)sc1-c1ccnc(C(C)(C)C(F)(F)F)c1 [Alpelisib] (partner 2 µM)
Method in brief: as §1

[3] = compound: CC(C)=CC[C@@H](O)C1=CC(=O)c2c(O)ccc(O)c2C1=O [Shikonin]
Method in brief: (§2)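 On vehicle-anchored 1536-well plates, lung cancer cell lines held overnight at 37 °C were pinned with five library-drug doses (not always all listed) spaced by √10. With no medium change over 5 days, they were then fixed, permeabilised and Hoechst-stained in one step and imaged at 4×. MetaXpress counted nuclei, and viability is the median across plates of treated-well over vehicle-well nuclei. Acceptance needed control CV below 25% and at least one doubling.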

[4] = compound: CC(C)N(CCCNC(=O)Nc1ccc(C(C)(C)C)cc1)C[C@H]1O[C@@H](n2ccc3c(N)ncnc32)[C@H](O)[C@@H]1O
Method in brief: as §2

NCI-H2405
relative viability ([1]; first compound 0.08 µM): 1.09 | relative viability ([1]; first compound 0.253 µM): 1.08 | relative viability ([1]; first compound 0.8 µM): 0.999 | relative viability ([1]; first compound 2.53 µM): 1.01 | relative viability ([1]; first compound 8 µM): 0.968 | relative viability ([2]; first compound 0.01 µM): 0.742 | relative viability ([2]; first compound 0.1 µM): 0.798 | relative viability ([2]; first compound 0.3162 µM): 0.864 | relative viability ([2]; first compound 1 µM): 0.761 | relative viability ([3]; 0.01 µM): 0.998 | relative viability ([3]; 0.1 µM): 1.04 | relative viability ([3]; 0.3162 µM): 1.08 | relative viability ([3]; 1 µM): 1.02 | relative viability ([4]; 0.08 µM): 1.02 | relative viability ([4]; 0.253 µM): 0.974 | relative viability ([4]; 0.8 µM): 0.931 | relative viability ([4]; 2.53 µM): 1.06 | relative viability ([4]; 8 µM): 0.966

NCI-H3122
relative viability ([1]; first compound 0.08 µM): 0.211 | relative viability ([1]; first compound 0.253 µM): 0.194 | relative viability ([1]; first compound 0.8 µM): 0.198 | relative viability ([1]; first compound 2.53 µM): 0.192 | relative viability ([1]; first compound 8 µM): 0.199 | relative viability ([2]; first compound 0.01 µM): 0.752 | relative viability ([2]; first compound 0.1 µM): 0.823 | relative viability ([2]; first compound 0.3162 µM): 0.844 | relative viability ([2]; first compound 1 µM): 0.79 | relative viability ([3]; 0.01 µM): 1.03 | relative viability ([3]; 0.1 µM): 1.07 | relative viability ([3]; 0.3162 µM): 1.07 | relative viability ([3]; 1 µM): 1.04 | relative viability ([4]; 0.08 µM): 0.978 | relative viability ([4]; 0.253 µM): 0.98 | relative viability ([4]; 0.8 µM): 0.965 | relative viability ([4]; 2.53 µM): 0.954 | relative viability ([4]; 8 µM): 0.993

PC-3 [JPC-3]
relative viability ([1]; first compound 0.08 µM): 1.06 | relative viability ([1]; first compound 0.253 µM): 1.08 | relative viability ([1]; first compound 2.53 µM): 1.09 | relative viability ([1]; first compound 8 µM): 1.08 | relative viability ([2]; first compound 0.01 µM): 1.04 | relative viability ([2]; first compound 0.1 µM): 1.11 | relative viability ([2]; first compound 0.3162 µM): 1.05 | relative viability ([2]; first compound 1 µM): 1.08 | relative viability ([3]; 0.01 µM): 1.1 | relative viability ([3]; 0.1 µM): 1.05 | relative viability ([3]; 0.3162 µM): 1.09 | relative viability ([3]; 1 µM): 1.07 | relative viability ([4]; 0.08 µM): 0.969 | relative viability ([4]; 0.253 µM): 1.06 | relative viability ([4]; 0.8 µM): 0.883 | relative viability ([4]; 2.53 µM): 1.03 | relative viability ([4]; 8 µM): 0.934

PC-14
relative viability ([1]; first compound 0.08 µM): 0.149 | relative viability ([1]; first compound 0.253 µM): 0.171 | relative viability ([1]; first compound 0.8 µM): 0.138 | relative viability ([1]; first compound 2.53 µM): 0.141 | relative viability ([1]; first compound 8 µM): 0.163 | relative viability ([2]; first compound 0.01 µM): 0.933 | relative viability ([2]; first compound 0.1 µM): 1.01 | relative viability ([2]; first compound 0.3162 µM): 1.07 | relative viability ([2]; first compound 1 µM): 1.07 | relative viability ([3]; 0.01 µM): 1.08 | relative viability ([3]; 0.1 µM): 1 | relative viability ([3]; 0.3162 µM): 1.12 | relative viability ([3]; 1 µM): 1.11 | relative viability ([4]; 0.08 µM): 0.975 | relative viability ([4]; 0.253 µM): 0.981 | relative viability ([4]; 0.8 µM): 0.951 | relative viability ([4]; 2.53 µM): 0.967 | relative viability ([4]; 8 µM): 0.904

RERF-LC-KJ
relative viability ([1]; first compound 0.08 µM): 0.502 | relative viability ([1]; first compound 0.253 µM): 0.478 | relative viability ([1]; first compound 0.8 µM): 0.517 | relative viability ([1]; first compound 2.53 µM): 0.48 | relative viability ([1]; first compound 8 µM): 0.466 | relative viability ([2]; first compound 0.01 µM): 0.78 | relative viability ([2]; first compound 0.1 µM): 0.732 | relative viability ([2]; first compound 0.3162 µM): 0.798 | relative viability ([2]; first compound 1 µM): 0.787 | relative viability ([3]; 0.01 µM): 1.09 | relative viability ([3]; 0.1 µM): 0.986 | relative viability ([3]; 0.3162 µM): 1.02 | relative viability ([3]; 1 µM): 1.03 | relative viability ([4]; 0.08 µM): 0.951 | relative viability ([4]; 0.253 µM): 1.05 | relative viability ([4]; 0.8 µM): 0.966 | relative viability ([4]; 2.53 µM): 0.968 | relative viability ([4]; 8 µM): 0.912

SK-LU-1
relative viability ([1]; first compound 0.08 µM): 1 | relative viability ([1]; first compound 0.253 µM): 1.01 | relative viability ([1]; first compound 0.8 µM): 1.04 | relative viability ([1]; first compound 2.53 µM): 0.983 | relative viability ([1]; first compound 8 µM): 0.915 | relative viability ([2]; first compound 0.01 µM): 1 | relative viability ([2]; first compound 0.1 µM): 1.09 | relative viability ([2]; first compound 0.3162 µM): 0.965 | relative viability ([2]; first compound 1 µM): 0.8 | relative viability ([3]; 0.01 µM): 1.05 | relative viability ([3]; 0.1 µM): 1.05 | relative viability ([3]; 0.3162 µM): 1.21 | relative viability ([3]; 1 µM): 1.03 | relative viability ([4]; 0.08 µM): 1.01 | relative viability ([4]; 0.253 µM): 1.06 | relative viability ([4]; 0.8 µM): 0.989 | relative viability ([4]; 2.53 µM): 1.1 | relative viability ([4]; 8 µM): 0.941

SK-MES-1
relative viability ([1]; first compound 0.08 µM): 1.05 | relative viability ([1]; first compound 0.253 µM): 0.915 | relative viability ([1]; first compound 0.8 µM): 0.819 | relative viability ([1]; first compound 2.53 µM): 1.03 | relative viability ([1]; first compound 8 µM): 0.912 | relative viability ([2]; first compound 0.01 µM): 0.873 | relative viability ([2]; first compound 0.1 µM): 1.04 | relative viability ([2]; first compound 0.3162 µM): 0.909 | relative viability ([2]; first compound 1 µM): 0.594 | relative viability ([3]; 0.01 µM): 1.04 | relative viability ([3]; 0.1 µM): 1.08 | relative viability ([3]; 0.3162 µM): 1.1 | relative viability ([3]; 1 µM): 0.962 | relative viability ([4]; 0.08 µM): 0.996 | relative viability ([4]; 0.253 µM): 0.942 | relative viability ([4]; 0.8 µM): 0.99 | relative viability ([4]; 2.53 µM): 1.02 | relative viability ([4]; 8 µM): 0.939

SW 1573
relative viability ([1]; first compound 0.08 µM): 0.88 | relative viability ([1]; first compound 0.253 µM): 0.804 | relative viability ([1]; first compound 0.8 µM): 0.829 | relative viability ([1]; first compound 2.53 µM): 0.832 | relative viability ([1]; first compound 8 µM): 0.778 | relative viability ([2]; first compound 0.01 µM): 0.816 | relative viability ([2]; first compound 0.1 µM): 0.888 | relative viability ([2]; first compound 0.3162 µM): 0.801 | relative viability ([2]; first compound 1 µM): 0.657 | relative viability ([3]; 0.01 µM): 1.1 | relative viability ([3]; 0.1 µM): 0.967 | relative viability ([3]; 0.3162 µM): 0.894 | relative viability ([3]; 1 µM): 0.721 | relative viability ([4]; 0.08 µM): 0.968 | relative viability ([4]; 0.253 µM): 0.966 | relative viability ([4]; 0.8 µM): 1.07 | relative viability ([4]; 2.53 µM): 1.11 | relative viability ([4]; 8 µM): 0.984

UMC-11
relative viability ([1]; first compound 0.08 µM): 0.803 | relative viability ([1]; first compound 0.253 µM): 0.748 | relative viability ([1]; first compound 0.8 µM): 0.791 | relative viability ([1]; first compound 2.53 µM): 0.79 | relative viability ([1]; first compound 8 µM): 0.806 | relative viability ([2]; first compound 0.01 µM): 0.875 | relative viability ([2]; first compound 0.1 µM): 1.08 | relative viability ([2]; first compound 0.3162 µM): 0.996 | relative viability ([2]; first compound 1 µM): 1.18 | relative viability ([3]; 0.01 µM): 0.943 | relative viability ([3]; 0.1 µM): 0.993 | relative viability ([3]; 0.3162 µM): 1.07 | relative viability ([3]; 1 µM): 1.08 | relative viability ([4]; 0.08 µM): 0.953 | relative viability ([4]; 0.253 µM): 0.875 | relative viability ([4]; 0.8 µM): 0.82 | relative viability ([4]; 2.53 µM): 0.999 | relative viability ([4]; 8 µM): 1.01
